Experiment [1] concerns Nucleic Acid. Kind of experiment: Binding affinity to alternating poly(dA)-poly(dT) polymer using ethidium displacement assay. Type of experiment: nucleic-acid assay. To be noted: Bos taurus.
Experiment [2] relates to Nucleic Acid. Kind of experiment: Compound was evaluated for binding affinity to homo poly(dA-dT) polymer using ethidium displacement assay. Type of experiment: nucleic-acid assay.
Experiment [3] has as its system Nucleic Acid. Kind of experiment: Compound was evaluated for its ability of alkylation of DNA. Type of experiment: nucleic-acid assay. To be noted: Bos taurus.
The test system of experiment [4] is Nucleic Acid. The experiment is described as follows: Compound was evaluated for its binding affinity to homo poly(dA-dT) polymer using ethidium displacement assay. Type of experiment: nucleic-acid assay.
Experiment [5] relates to Nucleic Acid. The experiment is described as follows: Compound was evaluated for binding affinity to alternating poly(dA)-poly(dT) polymer using ethidium displacement assay. Format: nucleic-acid assay.
Experiment [6] concerns Nucleic Acid. Kind of experiment: Compound was evaluated for binding affinity to calf thymus DNA using ethidium displacement assay. Format: nucleic-acid assay. To be noted: Bos taurus.
The subject of experiment [7] is Nucleic Acid. Kind of experiment: Compound was evaluated for binding affinity to poly(dG-dC) polymer using ethidium displacement assay. Format: nucleic-acid assay.
The next experiment deals with KB. Kind of experiment: Compound was evaluated for cytotoxicity measured as TD50. Type of experiment: functional. To be noted: Homo sapiens, read-out: TD50 (the source's name).

Consider `CN(C)CCCNC(=O)c1cc(NC(=O)c2cc(NC(=O)c3ccc(N(CCCl)CCCl)cc3)cn2C)cn1C`, for which the Kb with Nucleic Acid [1] stood at 6.06e+06 M⁻¹; with Nucleic Acid [2] it was 3.41e+06 M⁻¹; with Nucleic Acid [6], 1.07e+06 M⁻¹; in the experiment with Nucleic Acid [7] it was 1.81e+06 M⁻¹. The compound also registered an Alkylation with Nucleic Acid [3] of 11%. In addition, the C50 came out at 2.85 µM in the experiment with Nucleic Acid [4], 0.199 µM in the experiment with Nucleic Acid [5], 5.1 µM in the experiment on Nucleic Acid [6] and 11 µM in the experiment with Nucleic Acid [7]. In addition, the CC50 in the experiment on KB came to 5 µM.

In the experiment with Nucleic Acid [3], `CN(C)CCCNC(=O)c1cc(NC(=O)c2cc(NC(=O)c3ccc(N(CCCl)CCCl)cc3)cn2CCCCCCCCCCn2cc(NC(=O)c3ccc(N(CCCl)CCCl)cc3)cc2C(=O)Nc2cc(C(=O)NCCCN(C)C)n(C)c2)cn1C` displayed an Alkylation of 7.3%. Moreover, the C50 is 1.78 µM in the experiment on Nucleic Acid [4], 1.1 µM in the experiment with Nucleic Acid [5], 2.02 µM in the experiment with Nucleic Acid [6] and 1.96 µM in the experiment with Nucleic Acid [7]. The Kb in the experiment with Nucleic Acid [6] stood at 2.74e+06 M⁻¹; in the experiment on Nucleic Acid [7], 1.04e+07 M⁻¹. Also, the CC50 in the experiment on KB came to 44.2 µM.

In the experiment on Nucleic Acid [3], `CN(C)CCCNC(=O)c1cc(NC(=O)c2cc(NC(=O)c3ccc(N(CCCl)CCCl)cc3)cn2CCCCCCCCn2cc(NC(=O)c3ccc(N(CCCl)CCCl)cc3)cc2C(=O)Nc2cc(C(=O)NCCCN(C)C)n(C)c2)cn1C` returned an Alkylation of 7.1%. Besides, the C50 with Nucleic Acid [4] came out at 0.802 µM; in the experiment with Nucleic Acid [5] it was 0.535 µM; with Nucleic Acid [6], 1.02 µM; in the experiment with Nucleic Acid [7] it was 1.64 µM. Besides, the Kb with Nucleic Acid [6] turned out to be 5.6e+06 M⁻¹; in the experiment on Nucleic Acid [7] it was 1.25e+07 M⁻¹. The CC50 in the experiment on KB was more than 79.2 µM.

`CN(C)CCCNC(=O)c1cc(NC(=O)c2cc(NC(=O)c3ccc(N(CCCl)CCCl)cc3)cn2CCCCCCCCCCCCn2cc(NC(=O)c3ccc(N(CCCl)CCCl)cc3)cc2C(=O)Nc2cc(C(=O)NCCCN(C)C)n(C)c2)cn1C`: the C50 in the experiment on Nucleic Acid [4] came to 1.06 µM; with Nucleic Acid [5], 1.31 µM; in the experiment with Nucleic Acid [6] it was 3.17 µM; with Nucleic Acid [7], 2.11 µM. Moreover, the Kb amounted to 1.73e+06 M⁻¹ in the experiment on Nucleic Acid [6] and 9.66e+06 M⁻¹ with Nucleic Acid [7]. In addition, the CC50 with KB came out at 36.3 µM.

Consider `CN(C)CCCNC(=O)c1cc(NC(=O)c2cc(NC(=O)c3ccc(N(CCCl)CCCl)cc3)cn2CCCCCCCCCCCn2cc(NC(=O)c3ccc(N(CCCl)CCCl)cc3)cc2C(=O)Nc2cc(C(=O)NCCCN(C)C)n(C)c2)cn1C`, for which, in the experiment on Nucleic Acid [3], the Alkylation stood at 12%. Moreover, the C50 in the experiment on Nucleic Acid [4] was determined as 1.1 µM; with Nucleic Acid [5], 1.2 µM; in the experiment with Nucleic Acid [6], 1.63 µM; in the experiment on Nucleic Acid [7], 2.46 µM. For the same compound, the Kb in the experiment on Nucleic Acid [6] came to 3.42e+06 M⁻¹; in the experiment with Nucleic Acid [7], 8.25e+06 M⁻¹. In addition, in the experiment with KB, the CC50 was 35.8 µM.

On to `CN(C)CCCNC(=O)c1cc(NC(=O)c2cc(NC(=O)c3ccc(N(CCCl)CCCl)cc3)cn2CCCCCCCCCn2cc(NC(=O)c3ccc(N(CCCl)CCCl)cc3)cc2C(=O)Nc2cc(C(=O)NCCCN(C)C)n(C)c2)cn1C`, for which, in the experiment on Nucleic Acid [3], the Alkylation stood at 6.7%. Moreover, the C50 with Nucleic Acid [4] is 1.3 µM; in the experiment on Nucleic Acid [5] it was 1.31 µM; in the experiment with Nucleic Acid [6], 1.74 µM; in the experiment on Nucleic Acid [7], 1.97 µM. The Kb worked out at 3.2e+06 M⁻¹ in the experiment with Nucleic Acid [6] and 1.04e+07 M⁻¹ with Nucleic Acid [7]. In the experiment on KB, the CC50 is more than 79.2 µM.

These data come from ChEMBL document CHEMBL1128615, “Design, synthesis and evaluation of novel bismustard cross-linked lexitropsins” (1995).
